The results in this text go back to US10059699B2, “Tetrahydroquinoline derivatives as bromodomain inhibitors” (GlaxoSmithKline Intellectual Property (No.2) Limited, priority 2014, dated 2018).

Molecules are shown by their SMILES. Where two headings read alike, the source gives them in different places. Marks after values point to notes of the source that are not given here.

Data set [1] concerns biphenotypic B myelomonocytic leukaemia cells (MV-4-11). The experiment in a line: Cancer cell line proliferation assay, MV-4-11. The settings on record: Homo sapiens, MV4-11, MV-4-11 cells, 72 hours, CellTiter Glo, n = 3. Type of data set: cell-based. How it is done: (§1) The impact of the compound of Examples 7 and 14 on cancer cell proliferation was determined using patient derived NUT midline carcinoma cells (11060), multiple myeloma cells (OPM-2, DSMZ) and biphenotypic B myelomonocytic leukaemia cells (MV-4-11, ATCC) in a 72 hour proliferation assay. 11060 and OPM-2 cells were maintained in RPMI 1640 medium (Invitrogen) supplemented with 10% HI-FBS (Heat-Inactivated Fetal Bovine Serum, Hyclone) and 2 mM L-glutamine (Invitrogen) at 37° C. and an atmosphere of 5% CO2. MV-4-11 cells were maintained in IMDM media supplemented with 10% HI-FCS, 2 mM L-glutamine, 1× Non-essential amino acids (Invitrogen) and 1× sodium pyruvate (1 mM) (Invitrogen). Cells were diluted to 1.11×10^5 cells/mL and 90 μL/well plated into black sided, clear bottomed 96 well tissue culture plates (Corning), using growth media supplemented with penicillin/streptomycin (Invitrogen). Cells were incubated overnight at 37° C. and in one plate, ATP levels were measured using the CellTiter Glo assay (Promega) according to the manufacturer's instructions, to give a baseline reading (t=0). 3-fold serial dilutions of compounds ranging from 6 mM to 0.3 μM were prepared in 100% DMSO. The DMSO dilution series was diluted 20-fold in growth media before 10 μl of the resulting dilutions were added to the appropriate wells of the remaining cell plates. The final compound concentrations in the wells ranged from 30 μM to 1.5 nM in 0.5% DMSO. Cells were incubated with compounds for 72 hours before assaying for ATP content using CellTiter Glo (t=72). CellTiter Glo data from each t=72 time point was normalised to the relevant t=0 time point data, and expressed as % t=0.
(In general: ATP-based viability assays read luminescence as a measure of living cells.)

Data set [2] has as its system NMC11060 cells. Description: Mouse xenograft tumour assay (NMC). The class given is in vivo. Particulars: QD for 21 days, NOD/SCID mouse, day 21. How it is done: 1×10^7 NMC11060 cells, in 200 μl of 75% matrigel, were injected subcutaneously into each NOD/SCID mouse. Randomised oral administration of vehicle formulation, 1% Methycellulose (MC), or compound was initiated from the day tumour volume reached between 160-301 mm^3. Tumour volume was then measured every third day until either 21 days post inoculation or tumour volume had surpassed approximately 1000 mm^3.
Tumour growth inhibition=100−mean tumor volume of treatment group/mean tumour volume of control group×100. P values are derived from coefficient of variation analysis using software PASS 12, comparing vehicle against drug treated group. Based on day 21,* p<0.05, **p<0.01 and ***p<0.001

The target in data set [3] is hERG (Homo sapiens, UniProt Q12809). Description: hERG liability. (Block of hERG is tested as a sign of cardiac risk.)
The test system of data set [4] is IL-6. Description: LPS induced secretion of IL-6 from whole blood. The class given is cell-based. Particulars: human whole blood, LPS 200 ng/mL, n=6; read-out: pIC50, LPS induced IL-6 secretion (converted). The source says:
Activation in whole blood of predominantly monocytic cells by agonists of toll-like receptors such as bacterial lipopolysaccharide (LPS) results in production of key inflammatory mediators, including IL-6. Such pathways are widely considered to be central to the pathophysiology of a range of auto-immune and inflammatory disorders.
Human Whole Blood from 2 donors (n=2) is collected using Sodium heparin as anti-coagulent (Wockhardt cat# FP1712) (10 units of heparin/mL of blood). Compounds were prepared as [10 mM] DMSO stocks and then diluted such that the top starting concentration was [1.4 mM] followed by 8×3-fold dilutions in DMSO. Final assay concentrations start at [10 μM] for all compounds. 1 μL diluted compound was added per well in a 96-well U bottom plate. 1 μL DMSO only was added to column 10 (+ve control) and 1-((2S,4R)-2-methyl-4-(phenylamino)-6-(4-(piperidin-1-ylmethyl)phenyl)-3,4-dihydroquinolin-1(2H)-yl)ethanone (for a preparation see Compound 28, J. Med. Chem. 2014, 57, 8111-8131, 1 μL, 1.4 mM) added to column 11 (−ve control). […] 150 μL of 2×MSD Read Buffer T (stock 4×MSD Read Buffer T was diluted 50:50 with de-ionised water) was then added to each well and the plates read on the MSD Sector Imager 6000. Concentration response curves for each compound were generated from the data using internal XC50 analysis and an IC50 value was calculated.

Data set [5] deals with cytochrome P450 3A4 (Homo sapiens, UniProt P08684). The experiment in a line: Cytochrome P450 3A4 metabolism dependent inhibition. The class given is in vitro ADME.
In data set [6] the test system is multiple myeloma cells (OPM-2). Description: Cancer cell line proliferation assay, OPM-2. Particulars: Homo sapiens, OPM-2 cells, 72 hours, CellTiter Glo, n = 2. The class given is cell-based. As to the method:
as §1

[7] abbreviates: full curve fit, read-out: Cellular Proliferation: pIC50 (converted).
[8] abbreviates: read-out: Cellular Proliferation: gpIC50 (converted).

Chain of hERG (Q12809 whole entry): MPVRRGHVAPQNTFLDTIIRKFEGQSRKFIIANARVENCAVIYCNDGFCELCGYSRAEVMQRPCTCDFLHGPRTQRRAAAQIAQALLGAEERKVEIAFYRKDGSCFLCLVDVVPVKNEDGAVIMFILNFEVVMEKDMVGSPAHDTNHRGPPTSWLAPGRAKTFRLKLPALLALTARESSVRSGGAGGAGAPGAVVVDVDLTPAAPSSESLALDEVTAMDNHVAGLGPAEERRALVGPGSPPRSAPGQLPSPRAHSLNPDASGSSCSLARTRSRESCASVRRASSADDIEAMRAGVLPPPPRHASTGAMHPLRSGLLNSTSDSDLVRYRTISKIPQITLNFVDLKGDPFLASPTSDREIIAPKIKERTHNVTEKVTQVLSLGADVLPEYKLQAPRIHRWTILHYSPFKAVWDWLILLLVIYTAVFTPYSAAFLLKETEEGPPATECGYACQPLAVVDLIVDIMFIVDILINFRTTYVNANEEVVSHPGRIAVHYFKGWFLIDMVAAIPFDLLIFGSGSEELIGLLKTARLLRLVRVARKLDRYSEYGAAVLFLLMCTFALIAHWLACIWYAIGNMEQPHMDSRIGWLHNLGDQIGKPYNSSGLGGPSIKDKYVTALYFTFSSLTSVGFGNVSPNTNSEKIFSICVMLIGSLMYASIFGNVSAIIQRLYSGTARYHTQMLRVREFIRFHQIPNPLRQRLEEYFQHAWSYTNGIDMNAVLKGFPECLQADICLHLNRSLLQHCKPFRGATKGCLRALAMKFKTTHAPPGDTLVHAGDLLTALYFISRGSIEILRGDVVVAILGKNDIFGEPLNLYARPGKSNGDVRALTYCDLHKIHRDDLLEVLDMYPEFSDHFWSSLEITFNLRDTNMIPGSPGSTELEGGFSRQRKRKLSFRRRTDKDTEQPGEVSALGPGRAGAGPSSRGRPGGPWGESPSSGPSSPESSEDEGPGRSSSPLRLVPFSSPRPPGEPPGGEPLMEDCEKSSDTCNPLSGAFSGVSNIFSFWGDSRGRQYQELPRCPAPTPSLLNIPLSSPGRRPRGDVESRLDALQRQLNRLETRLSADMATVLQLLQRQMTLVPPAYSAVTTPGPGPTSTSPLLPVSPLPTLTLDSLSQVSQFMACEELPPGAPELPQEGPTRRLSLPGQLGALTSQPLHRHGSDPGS
Chain of cytochrome P450 3A4 (P08684 whole entry): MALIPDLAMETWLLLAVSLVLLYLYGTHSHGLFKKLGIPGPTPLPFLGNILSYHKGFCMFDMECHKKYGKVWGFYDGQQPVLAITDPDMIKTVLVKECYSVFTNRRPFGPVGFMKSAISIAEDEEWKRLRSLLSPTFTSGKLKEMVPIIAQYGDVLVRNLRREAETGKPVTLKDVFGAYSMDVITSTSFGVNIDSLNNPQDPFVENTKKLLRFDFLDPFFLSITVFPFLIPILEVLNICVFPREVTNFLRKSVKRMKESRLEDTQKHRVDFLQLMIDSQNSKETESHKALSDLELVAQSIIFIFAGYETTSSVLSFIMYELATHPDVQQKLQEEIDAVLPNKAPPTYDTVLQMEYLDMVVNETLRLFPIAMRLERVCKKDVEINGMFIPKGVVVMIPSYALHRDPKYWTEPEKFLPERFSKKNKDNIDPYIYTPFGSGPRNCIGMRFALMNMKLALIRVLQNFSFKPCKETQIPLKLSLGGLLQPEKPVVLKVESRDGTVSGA

As for `CC(=O)N1c2ccc(C(N)=O)cc2[C@H](Nc2ncc(Cl)cn2)C[C@@H]1C` [Example 14, (2S,4R)-1-acetyl-4-((5-chloropyrimidin-2-yl)amino)-2-methyl-1,2,3,4-tetrahydroquinoline-6-carboxamide], the IC50 in data set [1] (setting [7]) is 0.316 µM; in data set [1] (setting [8]), 0.251 µM; in data set [4] it was 0.2 µM; in data set [6] (setting [7]) it was 0.2 µM; in data set [6] (setting [8]) it was 0.126 µM. Moreover, the “% TGI” value in data set [2] (10 mg/kg/day PO) is 51* %; in data set [2] (30 mg/kg/day PO), 93*** %. Also, in data set [3], the hERG liability entry was “no hERG liability”. The “cytochrome P450 3A4 metabolism dependent inhibition” value in data set [5] was “no cytochrome P450 3A4 metabolism dependent inhibition”.
